Laboratory results published in patent publication US9593149B2, “Amylin and calcitonin receptor agonist” (Novo Nordisk A/S, priority 2014, dated 2017).
Numbered stars: 1 amine (or outer) side, 2 acyl side, 3 side chain; on linkers, the order of the positions; unused ones are H or OH. Side chains are listed from the residue outwards. Peptide text beside a SMILES is read from it. * marks the point of attachment. C20 diacid = O=C(O)CCCCCCCCCCCCCCCCCCC(=O)*; C18 diacid = O=C(O)CCCCCCCCCCCCCCCCC(=O)*; γGlu = O=C(O)[C@H](CCC(=O)[*:2])N[*:1]

Tests used:
[1] = biological target: T1, human amylin receptor (human calcitonin receptor + human RAMP3), BHK tk'ts 13 cells (Homo sapiens, UniProt O60896+P30988); test: Assay (Va) binding to the human amylin receptor (whole cell); details: read-out: hAmylin-R binding IC50
T1 construct: expressed in transfected cells; host or cells: BHK tk'ts 13
Protocol: The day before the assay the cells were Seeded into Poly-D-Lysin coated 384W Opaque White, BD BioCoat plates (10000 cells/well) and Incubated overnight at 37° C., 5% CO2, 95% humidity.

[2] = biological target: T2, human calcitonin (a) receptor, BHK570 cells (Homo sapiens, UniProt P30988); test: Assay (II)b functional CRE-luciferase assay without albumin, human calcitonin receptor; format: cell-based; details: Tested without HSA; read-out: hCTR funct. EC50
T2 construct: host or cells: BHK570
T2 sequence (P30988 25-474): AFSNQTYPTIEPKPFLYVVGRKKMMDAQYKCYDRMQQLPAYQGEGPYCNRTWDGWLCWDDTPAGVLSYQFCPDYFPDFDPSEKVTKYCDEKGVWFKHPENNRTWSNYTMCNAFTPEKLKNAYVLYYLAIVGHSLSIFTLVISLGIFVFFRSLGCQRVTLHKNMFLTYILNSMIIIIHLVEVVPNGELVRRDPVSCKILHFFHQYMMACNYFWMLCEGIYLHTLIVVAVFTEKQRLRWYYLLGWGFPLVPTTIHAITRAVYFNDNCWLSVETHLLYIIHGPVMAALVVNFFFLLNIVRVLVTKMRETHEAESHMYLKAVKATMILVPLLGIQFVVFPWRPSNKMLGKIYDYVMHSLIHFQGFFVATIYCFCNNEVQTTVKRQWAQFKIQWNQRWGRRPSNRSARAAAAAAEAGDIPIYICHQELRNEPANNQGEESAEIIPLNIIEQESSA
How it was run: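 BHK570 cells stably expressing human calcitonin receptor with CRE-luciferase reporter, plus RAMP-3 for the amylin 3(a) line. Cells stimulated 3 hours at 37 °C in albumin-free assay medium (0.1% ovalbumin, 10 mM Hepes pH 7.4); cAMP-driven luciferase read by luminescence.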

[3] = biological target: T3, rat amylin receptor (rat calcitonin receptor + rat RAMP 3) (Rattus norvegicus, UniProt P32214+Q9JJ73); test: Assay (VI) binding to the rat amylin receptor (membrane); details: membranes; read-out: rAmylin-R binding IC50
T3 construct: expressed in transfected cells; host or cells: BHK tk'ts 13 (transient, FuGENE 6)
T3 sequence (P32214 25-479 isoform P32214-2 limits assumed): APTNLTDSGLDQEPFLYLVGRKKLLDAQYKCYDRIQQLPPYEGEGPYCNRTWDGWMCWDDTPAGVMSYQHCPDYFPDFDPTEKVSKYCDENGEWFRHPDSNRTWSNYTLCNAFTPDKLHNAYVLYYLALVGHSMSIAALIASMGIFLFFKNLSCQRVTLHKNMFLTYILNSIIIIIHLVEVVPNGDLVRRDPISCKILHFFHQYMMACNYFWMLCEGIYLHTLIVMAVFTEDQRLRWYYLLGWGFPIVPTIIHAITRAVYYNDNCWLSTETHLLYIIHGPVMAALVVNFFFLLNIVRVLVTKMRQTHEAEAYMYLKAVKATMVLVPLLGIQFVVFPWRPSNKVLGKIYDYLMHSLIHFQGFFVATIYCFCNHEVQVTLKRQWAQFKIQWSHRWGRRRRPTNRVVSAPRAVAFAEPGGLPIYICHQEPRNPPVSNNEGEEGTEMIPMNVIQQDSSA
T3 sequence (Q9JJ73 23-147 partner): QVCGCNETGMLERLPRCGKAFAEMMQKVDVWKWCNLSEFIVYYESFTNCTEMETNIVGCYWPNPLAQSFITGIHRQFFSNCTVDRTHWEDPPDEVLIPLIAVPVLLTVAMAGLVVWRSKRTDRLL
Protocol: The assay was performed as described above (Assay (V)—Determination of binding to the human amylin receptor) with the exception that we used membranes prepared from BHK tk'ts 13 cells that were transiently transfected with the rat calcitonin receptor rat RAMP 3 at an equimolar ratio […]. The BHK tk'ts 13 cells were transiently transfected with rat calcitonin receptor using FuGENE® 6 (Roche), according to the manufacturer's recommendations. Cells were grown in DMEM with 10% FBS and 1% Pen/Strep. Approximately 48 hours after transfection, the cells were harvested and membranes were prepared.

T1 sequence (O60896 24-148, one chain of several): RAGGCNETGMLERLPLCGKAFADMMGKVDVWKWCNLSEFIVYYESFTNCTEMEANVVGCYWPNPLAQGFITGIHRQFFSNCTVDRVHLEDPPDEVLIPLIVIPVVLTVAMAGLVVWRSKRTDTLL

IC50 [1] [nM] | EC50 [2] [nM] | IC50 [3] [nM] | SMILES
1.23 | 0.022 | 0.025 | CC(C)C[C@H](NC(=O)[C@H](C)NC(=O)[C@H](C)NC(=O)[C@@H](NC(=O)[C@H](CO)NC(=O)[C@H](CC(C)C)NC(=O)[C@H](CCC(=O)O)NC(=O)[C@H](CO)NC(=O)[C@H](C)NC(=O)[C@H](C)NC(=O)CC[C@H](NC(=O)CCCCCCCCCCCCCCCCCCC(=O)O)C(=O)O)[C@@H](C)O)C(=O)NCC(=O)N[C@@H](CCCNC(=N)N)C(=O)N[C@@H](CC(C)C)C(=O)N[C@@H](CO)C(=O)N[C@@H](C)C(=O)N[C@@H](CCC(=O)O)C(=O)N[C@@H](CC(C)C)C(=O)N[C@@H](Cc1c[nH]cn1)C(=O)N[C@@H](CCC(=O)O)C(=O)N[C@@H](CC(C)C)C(=O)N[C@@H](C)C(=O)N[C@H](C(=O)N[C@@H](Cc1ccc(O)cc1)C(=O)N1CCC[C@H]1C(=O)N[C@@H](CCCNC(=N)N)C(=O)N[C@H](C(=O)N[C@@H](CCC(=O)O)C(=O)N[C@H](C(=O)NCC(=O)N[C@@H](CO)C(=O)NCC(=O)N[C@@H](CO)C(=O)N1CCC[C@H]1C(N)=O)[C@@H](C)O)[C@@H](C)O)[C@@H](C)O [compound 57, [N-terminal(C20 diacid-gGlu), 1A, 23Y, 30S, 31G]mimylin] ({C20 diacid-γGlu}-AASELSTAALGRLSAELHELATYPRTETGSGSP-NH2)
– | 0.027 | 0.046 | CC(=O)N[C@@H](C)C(=O)N[C@@H](CO)C(=O)N[C@@H](CCCCNC(=O)CC[C@H](NC(=O)CCCCCCCCCCCCCCCCCCC(=O)O)C(=O)O)C(=O)N[C@@H](CC(C)C)C(=O)N[C@@H](CO)C(=O)N[C@H](C(=O)N[C@@H](C)C(=O)N[C@@H](C)C(=O)N[C@@H](CC(C)C)C(=O)NCC(=O)N[C@@H](CCCNC(=N)N)C(=O)N[C@@H](CC(C)C)C(=O)N[C@@H](CO)C(=O)N[C@@H](C)C(=O)N[C@@H](CCC(=O)O)C(=O)N[C@@H](CC(C)C)C(=O)N[C@@H](Cc1c[nH]cn1)C(=O)N[C@@H](CCC(=O)O)C(=O)N[C@@H](CC(C)C)C(=O)N[C@@H](C)C(=O)N[C@H](C(=O)N[C@@H](CC(C)C)C(=O)N1CCC[C@H]1C(=O)N[C@@H](CCCNC(=N)N)C(=O)N[C@H](C(=O)N[C@@H](CCC(=O)O)C(=O)N[C@H](C(=O)NCC(=O)N[C@@H](CO)C(=O)NCC(=O)N[C@@H](CO)C(=O)N1CCC[C@H]1C(N)=O)[C@@H](C)O)[C@@H](C)O)[C@@H](C)O)[C@@H](C)O [compound 68, [N-terminal(acetyl), des1, 4K(C20 diacid-gGlu), 30S, 31G]mimylin] (Ac-ASK([γGlu-C20 diacid])LSTAALGRLSAELHELATLPRTETGSGSP-NH2)
22.9 | 0.045 | 0.162 | CC(C)C[C@H](NC(=O)[C@H](CCC(=O)O)NC(=O)[C@H](C)NC(=O)[C@@H](NC(=O)[C@H](CC(C)C)NC(=O)[C@H](CCCNC(=N)N)NC(=O)CNC(=O)[C@H](CC(C)C)NC(=O)[C@@H](NC(=O)[C@H](C)NC(=O)[C@@H](NC(=O)[C@@H](NC(=O)[C@H](CC(C)C)NC(=O)[C@H](CCC(=O)O)NC(=O)[C@H](CO)NC(=O)[C@H](C)NC(=O)CC[C@H](NC(=O)CCCCCCCCCCCCCCCCC(=O)O)C(=O)O)[C@@H](C)O)[C@@H](C)O)C(C)C)[C@@H](C)O)C(=O)N[C@@H](Cc1c[nH]cn1)C(=O)N[C@@H](CCC(=O)O)C(=O)N[C@@H](CC(C)C)C(=O)N[C@@H](CCC(=O)O)C(=O)N[C@H](C(=O)N[C@@H](CC(C)C)C(=O)N1CCC[C@H]1C(=O)N[C@@H](CCCNC(=N)N)C(=O)N[C@H](C(=O)N[C@@H](CCC(=O)O)C(=O)N[C@H](C(=O)NCC(=O)N[C@H](C(=O)NCC(=O)N[C@H](C(=O)N1CCC[C@H]1C(N)=O)[C@@H](C)O)[C@@H](C)O)[C@@H](C)O)[C@@H](C)O)[C@@H](C)O [compound 105, [N-terminal(C18 diacid-gGlu), des1, 6T, 9V, 14T, 21E, 30T, 31G, 32T]mimylin] ({C18 diacid-γGlu}-ASELTTAVLGRLTAELHELETLPRTETGTGTP-NH2)
0.278 | – | 0.146 | CC(C)C[C@H](NC(=O)[C@H](CCCNC(=N)N)NC(=O)CNC(=O)[C@H](CC(C)C)NC(=O)[C@@H](NC(=O)[C@H](C)NC(=O)[C@@H](NC(=O)[C@H](CO)NC(=O)[C@H](CC(C)C)NC(=O)[C@H](CCC(=O)O)NC(=O)[C@H](CO)NC(=O)[C@H](C)NC(=O)CC[C@H](NC(=O)CCCCCCCCCCCCCCCCCCC(=O)O)C(=O)O)[C@@H](C)O)C(C)C)C(=O)N[C@@H](CO)C(=O)N[C@@H](CCC(N)=O)C(=O)N[C@@H](CCC(=O)O)C(=O)N[C@@H](CC(C)C)C(=O)N[C@@H](Cc1c[nH]cn1)C(=O)N[C@@H](CCC(=O)O)C(=O)N[C@@H](CC(C)C)C(=O)N[C@@H](CCC(N)=O)C(=O)N[C@H](C(=O)N[C@@H](Cc1ccc(O)cc1)C(=O)N1CCC[C@H]1C(=O)N[C@@H](CCCNC(=N)N)C(=O)N[C@H](C(=O)N[C@@H](CCC(=O)O)C(=O)N[C@H](C(=O)NCC(=O)N[C@@H](CO)C(=O)NCC(=O)N[C@H](C(=O)N[C@@H](Cc1ccc(O)cc1)C(N)=O)[C@@H](C)O)[C@@H](C)O)[C@@H](C)O)[C@@H](C)O [compound 114, [N-terminal(C20 diacid-gGlu), des1, 9V, 15Q, 21Q, 23Y, 30S, 31G, 32T, 33Y]mimylin]
